# Measurements reported in ChEMBL document CHEMBL4813979.
# Calls of active or inactive are those of the source. The calls are words filed in the database; no cut-off is given here.
# Legend:
# Mus musculus [1] = experiment: Anti-colitis activity against DSS-induced BALB/c mouse model of subchronic relapsing colitis assessed as increase in body weight at 100 mg/kg/day, ip administered on days 1 and 3 of second week during 2 weeks DSS challenge and measured at the end of 2nd week; type: functional, organism-based; conditions: time 1.0 weeks
# Mus musculus [2] = experiment: Anti-colitis activity against DSS-induced BALB/c mouse model of subchronic relapsing colitis assessed as reduction in fecal blood at 100 mg/kg/day, ip administered on days 1 and 3 of second week during 2 weeks DSS challenge and measured at the end of 2nd week; type: functional, organism-based; conditions: time 1.0 weeks
# Mus musculus [3] = experiment: Anti-colitis activity against DSS-induced BALB/c mouse model of subchronic relapsing colitis assessed as increase in softening of feces at 100 mg/kg/day, ip administered on days 1 and 3 of second week during 2 weeks DSS challenge and measured at the end of 2nd week; type: functional, organism-based; conditions: time 1.0 weeks
# Mus musculus [4] = experiment: Anti-colitis activity against DSS-induced BALB/c mouse model of subchronic relapsing colitis assessed as effect on colon length at 100 mg/kg/day, ip administered on days 1 and 3 of second week during 2 weeks DSS challenge and measured at the end of 2nd week; type: functional, organism-based; conditions: time 1.0 weeks
# Mus musculus [5] = experiment: Anti-colitis activity against DSS-induced BALB/c mouse model of subchronic relapsing colitis assessed as increase in body weight at 100 mg/kg/day, po administered for 7 days in second week during 2 weeks DSS challenge and measured at the end of 2nd week; type: functional, organism-based; conditions: time 7.0 day
# Mus musculus [6] = experiment: Anti-colitis activity against DSS-induced BALB/c mouse model of subchronic relapsing colitis assessed as reduction in fecal blood at 100 mg/kg/day, po administered for 7 days in second week during 2 weeks DSS challenge and measured at the end of 2nd week; type: functional, organism-based; conditions: time 7.0 day
# Mus musculus [7] = experiment: Anti-colitis activity against DSS-induced BALB/c mouse model of subchronic relapsing colitis assessed as increase in softening of feces at 100 mg/kg/day, po administered for 7 days in second week during 2 weeks DSS challenge and measured at the end of 2nd week; type: functional, organism-based; conditions: time 7.0 day
# Mus musculus [8] = experiment: Anti-colitis activity against DSS-induced BALB/c mouse model of subchronic relapsing colitis assessed as effect on colon length at 100 mg/kg/day, po administered for 7 days in second week during 2 weeks DSS challenge and measured at the end of 2nd week; type: functional, organism-based; conditions: time 7.0 day
# Mus musculus [9] = experiment: Anti-colitis activity against DSS-induced BALB/c mouse model of subchronic relapsing colitis assessed as decrease in colon weight to length ratio at 100 mg/kg/day, po administered for 7 days in second week during 2 weeks DSS challenge and measured at the end of 2nd week; type: functional, organism-based; conditions: time 7.0 day
# [10] = biological target: Glycogen synthase kinase-3 beta (Mus musculus) (UniProt Q9WV60); experiment: Inhibition of GSK3-beta in mouse J774.1 cells assessed as reduction in LPS/IFN-gamma-induced NF-kappaB expression at 10 uM measured within 15 mins by Western blot analysis; type: cell-based
# Chain of Glycogen synthase kinase-3 beta (Mus musculus) (Q9WV60 whole entry, looked up): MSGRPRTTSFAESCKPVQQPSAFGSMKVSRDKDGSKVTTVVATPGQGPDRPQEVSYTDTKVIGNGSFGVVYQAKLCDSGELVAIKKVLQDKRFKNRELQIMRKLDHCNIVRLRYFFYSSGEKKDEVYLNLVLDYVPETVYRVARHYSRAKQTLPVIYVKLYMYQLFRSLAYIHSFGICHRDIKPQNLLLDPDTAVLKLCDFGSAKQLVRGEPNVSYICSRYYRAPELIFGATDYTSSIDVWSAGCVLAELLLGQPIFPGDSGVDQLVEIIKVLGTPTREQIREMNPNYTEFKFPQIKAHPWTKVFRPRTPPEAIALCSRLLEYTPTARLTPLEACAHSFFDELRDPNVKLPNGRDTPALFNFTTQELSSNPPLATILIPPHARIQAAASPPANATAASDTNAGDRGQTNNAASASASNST
compound,measurement,setting,value
S=C(S)N1CCCC1,Activity,Mus musculus [1],Active
same,Activity,Mus musculus [2],Active
same,Activity,Mus musculus [3],Active
same,Activity,Mus musculus [4],inactive
O=C(O)c1cc(/N=N/c2ccc(S(=O)(=O)Nc3ccccn3)cc2)ccc1O,Activity,Mus musculus [5],inactive
same,Activity,Mus musculus [6],Active
same,Activity,Mus musculus [7],Active
same,Activity,Mus musculus [8],inactive
same,Activity,Mus musculus [9],Active
C[S+]([O-])CCCCCCN=C=S (stereo not given),inhibition,[10],Active
